Converted amounts (≈) assume the structure as drawn. Where two headings read alike, the source gives them in different places.
Experiments:
OATP1B1 = target: T1, OATP1B1 (Homo sapiens, UniProt Q9Y6L6); experiment: Uptake transporter inhibition in transfected HEK 293 or MDCK cells; format: in vitro ADME
T1 construct: host or cells: MDCK
T1 sequence (Q9Y6L6 1-691): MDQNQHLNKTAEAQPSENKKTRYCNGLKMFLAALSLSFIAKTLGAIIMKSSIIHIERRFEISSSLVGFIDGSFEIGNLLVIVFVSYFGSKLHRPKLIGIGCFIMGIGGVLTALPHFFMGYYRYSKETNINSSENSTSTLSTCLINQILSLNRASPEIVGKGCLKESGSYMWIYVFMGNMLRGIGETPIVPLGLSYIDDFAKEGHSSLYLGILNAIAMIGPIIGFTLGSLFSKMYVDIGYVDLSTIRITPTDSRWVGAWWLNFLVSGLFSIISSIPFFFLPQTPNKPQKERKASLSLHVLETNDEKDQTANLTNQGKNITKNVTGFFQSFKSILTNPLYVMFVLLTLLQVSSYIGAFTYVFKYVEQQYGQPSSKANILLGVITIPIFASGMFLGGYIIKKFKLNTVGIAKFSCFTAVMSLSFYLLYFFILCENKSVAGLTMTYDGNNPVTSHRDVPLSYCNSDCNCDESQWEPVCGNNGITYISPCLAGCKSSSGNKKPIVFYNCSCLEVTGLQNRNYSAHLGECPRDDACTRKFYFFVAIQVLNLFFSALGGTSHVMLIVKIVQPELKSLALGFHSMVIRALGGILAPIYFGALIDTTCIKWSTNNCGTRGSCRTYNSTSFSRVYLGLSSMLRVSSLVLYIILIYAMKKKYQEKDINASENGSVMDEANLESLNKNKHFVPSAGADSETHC
Procedure: Cell monolayers were preincubated (37 °C) for 15 to 30 min in a transport medium containing the target concentration of EBO or a specific inhibitor without substrate. Following the removal of preincubation solutions, appropriate working solutions containing EBO at the target concentration plus the probe substrate were added to the wells in triplicate. Separate sets of triplicate wells were designated for probe substrate only and probe substrate plus the specific inhibitors, to determine the maximal uptake rate and maximal inhibition of uptake, respectively. After incubation at 37 °C for each transporter, the working solution was removed from each well and the experiment was stopped by washing three times with cold (4 °C) DPBS. Depending on the substrate label, cells were either lysed for the analysis of total radioactivity (liquid scintillation counter) or LC-MS/MS methods. For measuring relative fluorescence (FLUOstar Galaxy, Cary, NC, USA), cells were not lysed.

[1] = Solubility in transport buffer; format: physicochemical; details: aqueous buffer, read-out: Soluble up to
CYP1A2 = experiment: CYP inhibition (direct and metabolism-dependent) in human hepatic microsomes; format: in vitro ADME; details: for MDI IC50 Fold Change: metabolism-dependent inhibition; for IC50: pH 7.4, EBO 0.03–100 μM, M3 1–1000 µM, read-out: as an Inhibitor IC50
Procedure: (§1) The direct inhibitory potential of EBO on cytochrome P450 activities O-deethylase (CYP1A2), bupropion hydroxylase (CYP2B6), amodiaquine N-deethylase (CYP2C8), diclofenac 4′-hydroxylase (CYP2C9), S-mephenytoin 4′-hydroxylase (CYP2C19), bufuralol 1′-hydroxylase (CYP2D6), chlorzoxazone 6-hydroxylase (CYP2E1), testosterone 6β-hydroxylase (CYP3A), and midazolam 1′-hydroxylase (CYP3A) was assessed in vitro using human hepatic microsomes according to Covance Laboratory (Madison, WI, USA) SOP. A single substrate concentration was used, approximating the concentration of substrate that gives half the maximum reaction velocity (Km) for human hepatic microsomes for each cytochrome P450 activity. […] All sample and control incubations were performed in triplicate and were analyzed by LC-MS/MS. Incubation mixtures contained microsomal protein and substrate in a 0.1 M potassium phosphate buffer (pH 7.4) containing 1 mM EDTA (assay buffer). […] Incubations were terminated by the addition of 100 µL of an internal standard solution followed by vortex mixing. Protein was removed by centrifugation at 1500× g for 5 min at 4 °C, and supernatants were transferred to a separate plate and stored at 4 °C prior to LC-MS/MS analysis. The analyte for each activity assay was quantitated by comparison to a linear curve of an authentic standard prepared using human microsomal protein. […] Incubations were performed at substrate concentrations approximating the average Km values. […] For determination of control activities, NADPH was added after the addition of each substrate. Samples were then processed as previously described. […] Two sets of duplicate incubations were prepared (cofactor preincubation [50 µL] and control preincubation [50 µL]) with each concentration of M3. All incubations contained a final microsomal protein concentration of 0.1 mg/mL. In this study, M3 and microsomes were preincubated with cofactor for 20 min prior to initiation of reaction by addition of probe substrate. The corresponding control incubations were designed to provide a preincubation without cofactor while incorporating the 20 min preincubation of M3 with microsomes to ensure consistent equilibration of M3 in both control and cofactor preincubations. The control preincubations were therefore performed for 20 min with M3, microsomes, and probe substrate, and the reaction was initiated by the addition of a cofactor solution. […] Incubations without cofactor (at the highest concentration of M3) were performed to determine any cofactor-independent substrate metabolism formation. Probe substrate concentrations were determined by LC/MS/MS methods.

CYP2C8 = target: T2, CYP2C8 (Homo sapiens, UniProt P10632); experiment: as above; format: in vitro ADME; details: for MDI IC50 Fold Change: metabolism-dependent inhibition; for IC50: read-out: as an Inhibitor IC50
T2 construct: tissue CellzDirect; XenoTech LLC; host or cells: pooled human liver microsomes
T2 sequence (P10632 1-490): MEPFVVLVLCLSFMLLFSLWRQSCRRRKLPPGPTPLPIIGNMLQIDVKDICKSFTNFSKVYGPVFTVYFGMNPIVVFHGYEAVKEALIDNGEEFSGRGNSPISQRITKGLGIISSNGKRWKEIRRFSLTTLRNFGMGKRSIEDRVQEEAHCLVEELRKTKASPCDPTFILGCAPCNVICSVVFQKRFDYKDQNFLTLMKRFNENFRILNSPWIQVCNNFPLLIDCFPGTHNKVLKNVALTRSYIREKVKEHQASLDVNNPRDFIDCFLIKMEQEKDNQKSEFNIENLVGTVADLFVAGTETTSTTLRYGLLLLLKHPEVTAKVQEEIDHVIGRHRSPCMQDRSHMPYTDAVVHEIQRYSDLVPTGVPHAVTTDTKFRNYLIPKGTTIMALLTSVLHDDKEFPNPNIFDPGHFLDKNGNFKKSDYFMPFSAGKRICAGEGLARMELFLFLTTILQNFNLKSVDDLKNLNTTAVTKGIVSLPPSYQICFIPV
Procedure: as §1

[2] = cited from earlier work
[3] = EBO 500 mg PO q24h, healthy subjects, Study EBO-101, printed with "(unbound fraction)", read-out: Steady-state systemic total Cmax
[4] = human study of radiolabeled EBO

`NC[C@H]1OB(O)c2c(OCCCO)cccc21` [EBO, Epetraborole] gave an inhibition at 500 µM (OATP1B1; human, HEK 293 or MDCK cells transfected with OATP1B1, at 500 µM) of 25%, a solubility ([1]; transport buffer pH 7.4) of 17000 µM (≈ 4030 µg/mL) and a solubility ([1]; transport buffer pH 8.5) of 100 µM (≈ 23.7 µg/mL). For the same molecule, the “MDI IC50 Fold Change” value (CYP1A2; CYP1A2) was “No”, the inhibition at 100 µM (CYP1A2; human, human hepatic microsomes, pH 7.4, highest concentration tested (100 µM), read-out: Decrease of CYP1A2 activity (inhibition)) was roughly 30% and the IC50 (CYP1A2; human, human liver microsomes, CYP1A2) was greater than 100 µM. For the same molecule, the “Percentage of CYP1A2 activity remaining” value (CYP1A2; preincubation with EBO in the absence of NADPH) was 72.4%, the “Percentage of CYP1A2 activity remaining” value (CYP1A2; preincubation with EBO in the presence of NADPH) was 81.7% and the “MDI IC50 Fold Change” value (CYP2C8) was “No”. For the same molecule, the IC50 (CYP2C8) was greater than 100 µM, the Cmax ([2]; 500 mg/day PO human clinical dose) was 2850 ng/mL and the Cmax [2, 3] was 12 µM.

In the case of `NC[C@H]1OB(O)c2c(OCCC(=O)O)cccc21` [M3], the IC50 (OATP1B1; read-out: as an Inhibitor, IC50) is reported as greater than 250 µM, the solubility ([1]; transport buffer pH 7.4) is reported as 250 µM (≈ 62.8 µg/mL) and the solubility ([1]; transport buffer pH 8.5) is reported as 250 µM (≈ 62.8 µg/mL). The “Direct or time-dependent inhibitory activity (in words)” value (CYP1A2; CYP1A2) was “No direct or time-dependent inhibitory activity”, the “MDI IC50 Fold Change” value (CYP1A2; CYP1A2) was “No” and the IC50 (CYP1A2; human, microsomes, CYP1A2) was greater than 1000 µM. The “Direct or time-dependent inhibitory activity (in words)” value (CYP2C8) was “No direct or time-dependent inhibitory activity”, the “MDI IC50 Fold Change” value (CYP2C8) was “No” and the IC50 (CYP2C8) was greater than 1000 µM. For the same molecule, the Cmax [2, 3] was 20 µM, the “Excretion (in words)” value [2, 4] was “excreted predominantly in the urine” and the “Further metabolism (in words)” value [2, 4] was “not subject to further metabolism”.

Reference: publication PMC10818931, “In Vitro Evaluation of Drug–Drug Interaction Potential of Epetraborole, a Novel Bacterial Leucyl-tRNA Synthetase Inhibitor” (Pharmaceuticals, 2024)
